Measurements from patent publication US10508126B2, “Bisphosphonates vinylic monomers and polymers and uses thereof” (BAR-ILAN UNIVERSITY, priority 2012, dated 2019).

Experiment: Inhibition of HAP dissolution (calcium in supernatant by ICP)
Assay type: physicochemical
Conditions: compound 1 mM; supersaturated calcium phosphate, 0.05 M Tris pH 7.4, 37° C., 24 h
Experimental: The test based on a slightly modified method of Francis et al. (Francis, M. D. The inhibition of calcium hydroxyapatite crystal growth by polyphosphonates and polyphosphates. Calcif Tissue Res 1969, 3, 151-162). The extent of HAP formation in the presence of inhibitors was studied in supersaturated calcium phosphate solutions.
The final concentration of calcium (CaCl2.2H2O) and phosphate (K2HPO4) ions in the incubation solutions was 3.87 mM and 2.32 mM, respectively, yielding a molar ratio of [Ca]/[PO4]=1.67, as in hydroxyapatite (HAP). Each salt solution was prepared in 0.05 M Tris buffer, pH 7.4. The tested BP compound (1 mM) was dissolved in […]. 5 ml of 7.74 mM CaCl2.2H2O solution containing the BP compound and 5 ml of the 4.64 mM K2HPO4 were mixed in borosilicate glass vials (acid and acetone washed). The vials were then placed in a shaker at 37° C. for 24 h. The vials contents were centrifuged (4 min, 4000 rpm) and the supernatants were then separated and analyzed for calcium concentration by ICP Analysis.

In the case of `C=Cc1ccc(C(O)(P(=O)([O-])[O-])P(=O)([O-])O)cc1.[Na+].[Na+].[Na+]` [St-BP monomer, Trisodium hydroxyl (4-vinylphenyl) methelenebisphosphonic acid], the “Calcium ions concentration in filtrate (% of initial concentration)” value is reported as 45 % of initial concentration.
